SMILES strings stand for the structures.

Holding throughout (details): 20 µM compound, 0.05 units enzyme; Fig. 3
One experiment deals with T4 polynucleotide kinase (Enterobacteria phage T4, UniProt P06855).
A further experiment addresses calf thymus TdT (Bos taurus, UniProt P06526). Put plainly: TdT activity assay. Format: biochemical.
The target of the next experiment is T1, T4 DNA polymerase (Enterobacteria phage T4, UniProt P04415).
T1 sequence (P04415 1-898): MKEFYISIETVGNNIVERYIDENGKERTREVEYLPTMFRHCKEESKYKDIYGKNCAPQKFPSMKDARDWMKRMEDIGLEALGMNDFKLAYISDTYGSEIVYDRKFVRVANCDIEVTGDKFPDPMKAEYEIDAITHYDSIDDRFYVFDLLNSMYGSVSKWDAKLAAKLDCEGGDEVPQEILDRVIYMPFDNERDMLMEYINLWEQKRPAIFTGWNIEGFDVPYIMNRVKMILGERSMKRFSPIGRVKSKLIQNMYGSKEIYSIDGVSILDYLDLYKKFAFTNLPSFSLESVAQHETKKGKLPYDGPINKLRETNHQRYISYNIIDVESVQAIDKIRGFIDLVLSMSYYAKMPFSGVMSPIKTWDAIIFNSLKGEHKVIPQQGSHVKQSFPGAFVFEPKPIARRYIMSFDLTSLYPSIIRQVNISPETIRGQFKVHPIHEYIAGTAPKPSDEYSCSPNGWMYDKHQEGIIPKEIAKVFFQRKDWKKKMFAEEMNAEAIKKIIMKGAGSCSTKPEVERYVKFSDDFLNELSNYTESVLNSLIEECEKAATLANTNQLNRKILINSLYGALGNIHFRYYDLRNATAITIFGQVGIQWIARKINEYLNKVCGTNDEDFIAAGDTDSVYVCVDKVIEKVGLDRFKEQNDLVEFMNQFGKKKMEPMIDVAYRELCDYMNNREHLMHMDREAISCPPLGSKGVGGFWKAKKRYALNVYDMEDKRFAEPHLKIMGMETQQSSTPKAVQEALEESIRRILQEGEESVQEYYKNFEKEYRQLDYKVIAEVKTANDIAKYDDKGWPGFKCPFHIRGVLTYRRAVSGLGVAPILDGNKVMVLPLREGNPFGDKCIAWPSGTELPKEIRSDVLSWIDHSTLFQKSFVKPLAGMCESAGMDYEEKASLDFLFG
Put plainly: T4 DNA polymerase activity assay. Type of experiment: biochemical.

The target of a further experiment is Taq DNA polymerase (Thermus aquaticus, UniProt P19821). The experiment can be described thus: Taq DNA polymerase activity assay. Type of experiment: biochemical.
Taq DNA polymerase, sequence (P19821 whole entry): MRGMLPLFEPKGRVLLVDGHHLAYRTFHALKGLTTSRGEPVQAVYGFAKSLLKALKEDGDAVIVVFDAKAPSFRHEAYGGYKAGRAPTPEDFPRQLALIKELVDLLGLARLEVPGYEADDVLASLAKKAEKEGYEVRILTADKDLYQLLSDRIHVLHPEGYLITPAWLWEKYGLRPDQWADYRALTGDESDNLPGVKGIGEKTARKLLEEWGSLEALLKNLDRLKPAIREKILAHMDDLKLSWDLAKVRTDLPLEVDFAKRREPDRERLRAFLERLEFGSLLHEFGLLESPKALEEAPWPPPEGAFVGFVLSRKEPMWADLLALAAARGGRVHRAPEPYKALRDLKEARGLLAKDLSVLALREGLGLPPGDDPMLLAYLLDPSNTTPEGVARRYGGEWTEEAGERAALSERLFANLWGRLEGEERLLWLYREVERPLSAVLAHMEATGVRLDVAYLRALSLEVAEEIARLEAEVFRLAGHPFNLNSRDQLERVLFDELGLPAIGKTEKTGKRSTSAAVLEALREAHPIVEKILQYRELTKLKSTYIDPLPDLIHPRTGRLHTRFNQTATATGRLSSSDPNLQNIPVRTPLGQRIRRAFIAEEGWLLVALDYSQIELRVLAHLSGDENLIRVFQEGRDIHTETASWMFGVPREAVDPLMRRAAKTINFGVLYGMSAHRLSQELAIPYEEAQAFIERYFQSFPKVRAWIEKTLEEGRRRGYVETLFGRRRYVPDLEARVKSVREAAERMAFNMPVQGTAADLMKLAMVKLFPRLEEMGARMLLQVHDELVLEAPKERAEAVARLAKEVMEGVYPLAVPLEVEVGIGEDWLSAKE

calf thymus TdT, sequence (P06526 whole entry): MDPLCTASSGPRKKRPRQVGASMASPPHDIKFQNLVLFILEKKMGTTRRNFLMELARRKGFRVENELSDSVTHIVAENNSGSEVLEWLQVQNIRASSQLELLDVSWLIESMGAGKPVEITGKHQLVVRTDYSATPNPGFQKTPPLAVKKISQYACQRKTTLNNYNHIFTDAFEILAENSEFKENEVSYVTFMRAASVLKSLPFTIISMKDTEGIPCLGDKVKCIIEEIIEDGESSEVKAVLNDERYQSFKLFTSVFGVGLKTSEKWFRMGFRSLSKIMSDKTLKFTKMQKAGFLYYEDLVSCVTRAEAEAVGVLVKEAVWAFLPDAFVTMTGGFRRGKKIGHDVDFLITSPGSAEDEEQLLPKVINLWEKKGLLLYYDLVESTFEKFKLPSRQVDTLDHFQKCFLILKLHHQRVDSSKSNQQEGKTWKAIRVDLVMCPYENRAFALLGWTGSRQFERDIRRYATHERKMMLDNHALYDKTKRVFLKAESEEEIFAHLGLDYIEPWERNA
T4 polynucleotide kinase, sequence (P06855 whole entry): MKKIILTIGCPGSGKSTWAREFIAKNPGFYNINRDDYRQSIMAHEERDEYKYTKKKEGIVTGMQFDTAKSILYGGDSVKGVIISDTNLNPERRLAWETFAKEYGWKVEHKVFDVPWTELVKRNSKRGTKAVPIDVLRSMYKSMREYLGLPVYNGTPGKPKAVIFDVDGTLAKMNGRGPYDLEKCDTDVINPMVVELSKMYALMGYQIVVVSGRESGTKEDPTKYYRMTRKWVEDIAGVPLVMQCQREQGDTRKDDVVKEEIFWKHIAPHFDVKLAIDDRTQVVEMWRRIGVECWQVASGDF

For the compound `CCCCCCCCCCCCCCCCCC(=O)OC[C@H](CO[C@H]1O[C@H](CS(=O)(=O)O)[C@@H](O)[C@H](O)[C@H]1O)OC(=O)CCCCCCCCCCCCCCCCC` [C18--SQDG], at T4 polynucleotide kinase, the “Effect on T4 polynucleotide kinase activity” value is “hardly affected”. For the same compound, the “Effect on TdT activity” value at calf thymus TdT is “inhibited”. Further, the “Effect on T4 DNA polymerase activity” value at T4 DNA polymerase was “hardly affected”. The “Effect on Taq DNA polymerase activity” value at Taq DNA polymerase was “hardly affected”.

Values taken from paper PMC5926251 (Japanese Journal of Cancer Research : Gann, 2000).
